Usually IC50 stands for the concentration needed to halve the response being measured.

≈ marks a conversion by molar mass, not a printed value. Records with an inconclusive call do not appear. Calls of active or inactive are those of the source. How the calls were made is not given here. Some results are limits rather than exact numbers.

The test system of the experiment is M. tuberculosis H37Rv growth inhibition. Description: Mycobacterium tuberculosis H37Rv growth inhibition, cell based, confirmatory dose response (AID 1949).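 Further: bacteria grown 7 days with compound before Alamar blue readout.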
For the molecule `O=C(CCN1CCC(c2ccccc2)C1)c1ccco1` (stereo not given), the IC50 is > 50 µg/mL (inactive). For `COC(=O)C(C)Oc1ccc2c(=O)c(Oc3ccccc3Cl)coc2c1` (stereo not given), the IC50 is 8.57 µg/mL (≈ 22.9 µM). Regarding `OC(COc1ccccc1Br)CN1CCN(C(c2ccccc2)c2ccccc2)CC1` (stereo not given), the half-inhibitory concentration (IC50) was 5.33 µg/mL (≈ 11.1 µM). For `CN1CCN(c2ccc(NC(=O)c3cccc(OCc4ccccc4)c3)cc2)CC1` the value was 21.4 µg/mL (≈ 53.2 µM). As for `COc1cc([N+](=O)[O-])ccc1NC(=O)c1cc(Cl)ccc1O`, the concentration for half-maximal inhibition (IC50) is 0.12 µg/mL (≈ 0.372 µM).

On to `CCCCSc1ccc(NCCC(=O)c2ccco2)cc1`, for which the IC50 was 0.42 µg/mL (≈ 1.38 µM). Regarding `CCCOC(=O)c1ccc(NC(=S)NC(=O)c2ccc(Cl)cc2)cc1`, the IC50 was 0.8 µg/mL (≈ 2.12 µM). Turning to `N#CC1=C(SCC(=O)Nc2ccccc2C(=O)c2ccccc2)NC(=O)CC1c1ccccc1F` (stereo not given), the concentration for half-maximal inhibition (IC50) was 3.1 µg/mL (≈ 6.38 µM). On to `CC1CCN(c2nnnc3c2sc2nc(N4CCOCC4)c4c(c23)CCCC4)CC1`, for which the IC50 is > 50 µg/mL (inactive). For the molecule `C/C(=N/Nc1nc(C)c(C)s1)c1ccc(Br)cc1`, the IC50 is 0.59 µg/mL (≈ 1.82 µM). Consider `O=C(Nc1ccc(F)c(Cl)c1)c1ccc([N+](=O)[O-])o1`, for which the 50% inhibitory concentration (IC50) is under 0.1 µg/mL. For `Nc1ccc2nc(SCC(=O)Nc3cccc(Cl)c3)sc2c1`, the IC50 was > 50 µg/mL (inactive). For the molecule `O=C(CSc1ccc(Br)cc1)Nc1ccc([N+](=O)[O-])cc1`, the IC50 is 23.6 µg/mL (≈ 64.2 µM).

Consider `Cc1cccc(OCCn2c(NC(=O)c3ccco3)nc3ccccc32)c1`, for which the IC50 was 2.87 µg/mL (≈ 7.94 µM). For `Cc1ccc(OC(F)F)c(NC(=O)Nc2ccc([N+](=O)[O-])cc2)c1`, the IC50 was 22.4 µg/mL (≈ 66.5 µM). As for `O=C(Nc1ccc(Cl)c(Cl)c1)Nc1ccc(Br)cc1F`, the half-maximal inhibitory concentration (IC50) was 0.37 µg/mL (≈ 0.979 µM). Turning to `COc1ccc(NC(=O)CC23CC4CC(CC(C4)C2)C3)cc1Cl`, the IC50 is 3.05 µg/mL (≈ 9.14 µM). On to `O=C(NC(Nc1cccc([N+](=O)[O-])c1)C(Cl)(Cl)Cl)c1cccc(I)c1` (stereo not given), for which the 50% inhibitory concentration (IC50) was 11.7 µg/mL (≈ 22.8 µM). As for `CCCCOC(=O)COc1ccc2c(=O)c(Oc3ccc(OCC)cc3)c(C)oc2c1`, the IC50 was 1.59 µg/mL (≈ 3.73 µM).

With `O=C(Oc1ccc(Cl)cc1)c1ccc(S(=O)(=O)c2ccc(Cl)cc2)cc1`, the half-maximal inhibitory concentration (IC50) is 1.02 µg/mL (≈ 2.5 µM). Consider `COC(=O)C1=C(C)N(c2ccc(F)c(Cl)c2)C(=O)C1`, for which the concentration for half-maximal inhibition (IC50) was 13.5 µg/mL (≈ 47.4 µM).

Regarding `COc1cc(Br)cc2cc(C(=O)Nc3ccccc3C(F)(F)F)c(=O)oc12`, the IC50 was > 50 µg/mL (inactive). Regarding `CCOC(=O)COc1ccc(-c2ccc(C)cc2)cc1`, the IC50 is 0.33 µg/mL (≈ 1.22 µM). As to `OCc1nc2ccccc2n1CC(O)COc1ccc(OCc2ccccc2)cc1` (stereo not given), the IC50 is 4.83 µg/mL (≈ 11.9 µM). Consider `Cc1nc2ccc(C(=O)OCc3cccc(F)c3)cc2nc1C`, for which the 50% inhibitory concentration (IC50) is 1.68 µg/mL (≈ 5.41 µM). Take `CCOC(=O)C1CCN(C2=NC(=O)/C(=C\c3ccc(Cl)cc3Cl)S2)CC1`: the IC50 is 0.41 µg/mL (≈ 0.992 µM). For `Cc1cccc(Nc2cc(Cl)c3nonc3c2[N+](=O)[O-])c1C`, the half-maximal inhibitory concentration (IC50) is 1.28 µg/mL (≈ 4.02 µM).

Take `Cc1ccc(Cn2cnc3cc(C)c(C)cc32)cc1`: the concentration for half-maximal inhibition (IC50) is 8.24 µg/mL (≈ 32.9 µM). Regarding `O=C(CCNc1ccc(Cl)c(C(F)(F)F)c1)c1cccs1`, the 50% inhibitory concentration (IC50) was 3.17 µg/mL (≈ 9.5 µM).

For `Cc1ccc(NS(=O)(=O)c2ccc(NC(=S)NC(=O)c3ccc(F)cc3)cc2)c(C)c1`, the IC50 was 8.09 µg/mL (≈ 17.7 µM). On to `CC1=NN(c2nc3ccccc3s2)C(=O)C1Cc1cccc2ccccc12` (stereo not given), for which the half-maximal inhibitory concentration (IC50) is 0.3 µg/mL (≈ 0.808 µM). As to `CCCCNCCOCCOc1ccc(Cl)cc1C(C)(C)C`, the IC50 is 4.33 µg/mL (≈ 13.2 µM). With `Cc1sc2ncnc(N3CCN(CCOc4ccc(Cl)cc4)CC3)c2c1C`, the IC50 was > 50 µg/mL (inactive).

For `Cc1cc2ncn(CCOc3ccc(Cl)cc3)c2cc1C`, the IC50 was 1.12 µg/mL (≈ 3.72 µM). On to `Cc1nc2ccccc2n1CCCOc1ccc(Cl)cc1`, for which the concentration for half-maximal inhibition (IC50) was 4.87 µg/mL (≈ 16.2 µM). In the case of `CC(C)OC(=O)C(C)n1cnc2scc(-c3ccc(Br)cc3)c2c1=O` (stereo not given), the IC50 was 8.3 µg/mL (≈ 19.7 µM). Turning to `Cc1ccc2[nH]c3c(c2c1)CCCC3NCC(O)Cc1ccccc1` (stereo not given), the IC50 was 6.03 µg/mL (≈ 18 µM). For `CCOc1ccccc1C(=O)Nc1cc(Cl)ccc1O` the value was 4.22 µg/mL (≈ 14.5 µM). As to `O=C(COc1ccc(Br)cc1)c1ccc(F)cc1`, the concentration for half-maximal inhibition (IC50) is 10.7 µg/mL (≈ 34.5 µM). For `CCn1nnc(NC(=O)c2sc3ccccc3c2Cl)n1` the value was 3.02 µg/mL (≈ 9.81 µM); for `Cc1nc(N2CCN(Cc3ccc4c(c3)OCO4)CC2)nc2c1C(=O)CC(c1ccco1)C2` (stereo not given), 5.06 µg/mL (≈ 11.3 µM). Consider `CN(C)CCCNc1nn2c(=O)c3c(-c4ccc(Cl)cc4)csc3nc2c2ccccc12`, for which the 50% inhibitory concentration (IC50) was 35.1 µg/mL (≈ 75.5 µM).

For the molecule `O=C(Nc1ccccc1OC(F)F)c1ccc([N+](=O)[O-])o1`, the IC50 was 6.29 µg/mL (≈ 21.1 µM). For `COc1cccc(NC(=O)CSc2nnc(-c3ccc(Br)cc3)o2)c1` the value was 3.12 µg/mL (≈ 7.42 µM). For `Cc1ccc(CNC(=S)Nc2ccc(N(C)C)cc2)cc1` the value was 5.34 µg/mL (≈ 17.8 µM). As to `Cc1cccc(OCCn2cnc3cc(C)c(C)cc32)c1`, the 50% inhibitory concentration (IC50) was 4.52 µg/mL (≈ 16.1 µM). With `Cc1ccc(C(=O)NCCC2=CCCCC2)cc1Br`, the IC50 is 3.14 µg/mL (≈ 9.74 µM).

Take `O=C(Nc1cccc(Cl)c1)c1cc(Br)ccc1Cl`: the IC50 was 1.53 µg/mL (≈ 4.43 µM).

With `O=C(NCCCn1ccnc1)c1cc(-c2ccc(Br)cc2)nc2ccccc12`, the IC50 was 9.43 µg/mL (≈ 21.7 µM). Consider `COc1cc(CNCCO)cc(Cl)c1OCc1ccc(Cl)cc1Cl`, for which the IC50 was 5.72 µg/mL (≈ 14.6 µM).

The values are drawn from PubChem BioAssay AID1949 (Southern Research Institute, 2009).
